Source: US4900815A, “Sulfated polysaccharide DS4152” (Daiichi Seiyaku Co., Ltd., priority 1986, dated 1990)
Structures can show the parent of a compound that is named as a salt.

What was measured:
[1] = test system: angiogenesis of the chick CAM; experiment: CAM angiogenesis inhibition, various steroids alone or with DS4152; type: in vivo; settings: for degree of increase: ID50 alone vs. in the presence of 10 ng of DS4152; for ID50, used in combination with DS4152: in the presence of 10 ng of DS4152; for ID50, alone: steroid alone
[2] = test system: vascularization in chorioallantoic membrane (CAM) of chick embryo, rabbit cornea and hamster cheek pouches; settings: cited from earlier work
CAM angiogenesis = experiment: CAM Angiogenesis Inhibition Test (Direct Method), antiestrogens with or without DS4152; type: in vivo, chick
Description: (§1) Using chick embryos, a test was carried out in accordance with the following method, which was a partial modification of the Taylor-Folkman'smethod Nature, 297, 307 (1982)].
(§2) Either DS4152 or heparin dissolved in physiological saline was added to the CAM of each 4-5 day old fertilized chicken 1 egg (species: NORIN CROSS) and then the eggs were incubated at 37° C.
(§3) Two days after the addition of the agent, the degree of the CAM vascularization was compared with that of a control to which physiological saline was only added. The 50% vascularization inhibition dose (ID50) was calculated by the probit method.
A test was conducted in the same manner as in Example 2. Antiestrogens were separately dissolved or suspended in physiological saline and were added either alone or together with DS4152. The eggs with the agents were incubated at 37° C. Two days after the addition of the agents, the degrees of development of CAM vessels were individually compared with that of a control to which physiological saline was only added.

[3] = test system: CAM vascularization of chick embryos; experiment: CAM Angiogenesis Inhibition Test (Direct Method), combination with cortisone acetate; type: in vivo; settings: 0.5 μg per embryo, alone
Description: as §1, §2, §3
In the same manner as in Example 2, combination effects of a steroid and DS4152 were examined. […] The activities of DF4639 and H Fraction were also investigated in the comparison with that of DS4152.

CAM vascularization = experiment: Antiangiogenic Effects (Ex Vivo) of steroids with or without DS4152; parameters: species or system chick (blood from male ICR mice)
Description: Male ICR mice were orally administered with a solution of DS4152 dissolved in physiological saline. A saline suspension of a steroid was administered orally or intramuscularly, either in combination with DS4152 or alone. Blood samples collected after 6 hours were prevented from coagulation with a 0.313% aqueous solution of sodium citrate. Each blood sample was added to the 5 day CAM in the same manner as in the direct method. The inhibitory effects were judged after two days. Results were expressed by inhibition ratios (%) of CAM vascularization of each group to that of control group with a blood sample collected from the mice with saline. (Table 11).

Sarcoma 180 (S180) = experiment: Antitumor Test, Sarcoma 180, DS4152 and cortisone acetate; type: in vivo, mouse (male ICR)
Description: Male ICR mice (5 weeks old) were each inoculated subcutaneously with 1×10^6 cells of Sarcoma 180 (S180). From the 3rd day, a saline suspension of cortisone acetate was administered at a dose of 250 mg/kg/day for 3 days and then at a dose of 100 mg/kg/day for 1 day.
DS4152 was dissolved in physiological saline and administered at a dose of 0.61 or 6.1 mg/mouse subcutaneously or orally once a day for 4 days. On the 7th day after the inoculation, the mice were sacrificed to compare their tumor weights with those of the control mice.

breast cancer = settings: Oncologia, 10, 72 (1984); cited from earlier work
[4] = cortisone acetate alone, 250 then 100 mg/kg/day

| Compound | degree of increase [1] [times] | ID50, used in combination with DS4152 [1] [μg/embryo] | ID50, alone [1] [μg/embryo] | other results |
| --- | --- | --- | --- | --- |
| C[C@@]12CCC[C@H]1[C@@H]1CC[C@H]3CCCC[C@]3(C)[C@H]1CC2 [5α-Androstane] | 8.0 | 0.29 | 2.32 | – |
| C[C@H]1C[C@@H]2[C@H]([C@@H](O)C[C@@]3(C)[C@H]2CC[C@]3(O)C(=O)CO)[C@@]2(C)C=CC(=O)C=C12 [6α-Methylprednisolone] | 38.3 | 0.03 | 1.15 | suppression of experimentally induced vascularization [2]: effective |
| C[C@]12CC[C@@H]3c4ccc(O)cc4CC[C@H]3[C@@H]1CC[C@@H]2O [17β-Estradiol] | 7.0 | 0.28 | 1.96 | – |
| C[C@H]1C[C@H]2[C@@H]3CCC4=CC(=O)C=C[C@]4(C)[C@@]3(F)[C@@H](O)C[C@]2(C)[C@@]1(O)C(=O)CO [Betamethasone] | 16.0 | 0.05 | 0.80 | – |
| CCN(CC)CCOc1ccc(C(=C(Cl)c2ccccc2)c2ccccc2)cc1 [Clomiphene citrate] | – | – | – | percent inhibition of CAM vascularization (CAM angiogenesis; antiestrogen 1 μg, DS4152 0 μg): -3.9%; percent inhibition of CAM vascularization (CAM angiogenesis; antiestrogen 1 μg, DS4152 0.01 μg): 32.6%; percent inhibition of CAM vascularization (CAM angiogenesis; antiestrogen 10 μg, DS4152 0 μg): -11.4%; percent inhibition of CAM vascularization (CAM angiogenesis; antiestrogen 10 μg, DS4152 0.01 μg): 42.0% |
| CC(=O)OCC(=O)[C@@]1(O)CC[C@H]2[C@@H]3CCC4=CC(=O)CC[C@]4(C)[C@H]3C(=O)C[C@@]21C [Cortisone acetate] | 7.1 | 0.17 | 1.20 | influence on vascularization [3]: not to give any influence to the vascularization; Inhibition rate of angiogenesis (CAM vascularization; steroid p.o. 5 mg/kg, DS4152 0): 7.7%; Inhibition rate of angiogenesis (CAM vascularization; steroid p.o. 5 mg/kg, DS4152 30 mg/kg p.o.): 75.1%; T/C (Sarcoma 180 (S180); [4]): 94.2%; Tumor weight, mean ± standard error (Sarcoma 180 (S180); [4]): 0.340 ± 0.162; tumor weight compared with saline group (Sarcoma 180 (S180); cortisone acetate only): not different |
| C[C@]12C[C@H]3S[C@H]3C[C@@H]1CC[C@@H]1[C@@H]2CC[C@]2(C)[C@@H](O)CC[C@@H]12 [Epithiostanol] | – | – | – | Inhibition rate of angiogenesis (CAM vascularization; steroid i.m. 5 mg/kg, DS4152 0): 4.0%; Inhibition rate of angiogenesis (CAM vascularization; steroid i.m. 5 mg/kg, DS4152 30 mg/kg p.o.): 5.2%; Inhibition rate of angiogenesis (CAM vascularization; steroid i.m. 50 mg/kg, DS4152 0): 13.4%; Inhibition rate of angiogenesis (CAM vascularization; steroid i.m. 50 mg/kg, DS4152 30 mg/kg p.o.): 23.4%; Inhibition rate of angiogenesis (CAM vascularization; steroid i.m. 100 mg/kg, DS4152 0): 24.2%; Inhibition rate of angiogenesis (CAM vascularization; steroid i.m. 100 mg/kg, DS4152 30 mg/kg p.o.): 37.6% |
| C[C@]1(O)CC[C@H]2[C@@H]3CCC4=CC(=O)CC[C@]4(C)[C@@]3(F)[C@@H](O)C[C@@]21C [Fluoxymesterone] | 10.3 | 0.12 | 1.24 | effectivity (anti-breast cancer) (breast cancer): 20-30% |
| C[C@]12CCC(=O)C=C1CC[C@@H]1[C@@H]2[C@@H](O)C[C@@]2(C)[C@H]1CC[C@]2(O)C(=O)CO [Hydrocortisone] | 6.9 | 0.16 | 1.10 | – |
